What was measured:
[1] = Chemical stability of LE formulations to 25 kGy gamma irradiation (degradant concentrations); assay type: physicochemical
Protocol: Gamma irradiation of a formulation can cause chemical degradation and free radical generation and is a concern especially in aqueous formulations. LE is a soft steroid designed to metabolize via the hydrolytic or enzymatic cleavage of two ester bonds into PJ-91 and PJ-90. […] The concentrations of the degradants were measured immediately after being subjected to gamma irradiation (“Gamma irradiated initial”) and 4 weeks after being subjected to gamma irradiation (“gamma irradiated after 4 weeks”) using a Cobalt 60 gamma irradiation source at a dose of 25 kGy. […] [table]

physchem = conditions: 25 °C, water
VEGF = assay: Rabbit VEGF-challenge model, leakage by fluorescein angiography; assay type: in vivo, Dutch belted rabbits; conditions: axitinib-MPP 5%, 50 μL every 4 hours days 1-6; Avastin one intravitreal injection day 1; VEGF day 3; angiography day 6
Description: On day 3, the rabbits received an intravitreal injection of VEGF. On day 6, the rabbits were accessed for leakage via fluorescein angiography.
In this model, Dutch belted rabbits were given an intravitreal injection of VEGF to stimulate vascular growth. Fluorescein angiography was used to determine the degree to which the rabbits developed abnormal vascular and leakage.

## CCOC(=O)O[C@]1(C(=O)OCCl)CC[C@H]2[C@@H]3CCC4=CC(=O)C=C[C@]4(C)[C@H]3[C@@H](O)C[C@@]21C [LE, loteprednol etabonate]
[1]
  Amount of tetradeca when LE is gamma-irradiated: above 1%

## Nc1c(CC(=O)O)cccc1C(=O)c1ccc(Br)cc1 [bromfenac calcium]
physchem
  solubility: ~150 µg/mL

## Avastin®: bevacizumab; positive control, one intravitreal injection
VEGF
  Vessel growth and vascular leakage after intravitreal VEGF: no change in retinal vasculature

— US20130316006A1, “PARTICLES, COMPOSITIONS AND METHODS FOR OPHTHALMIC AND/OR OTHER APPLICATIONS” (Kala Pharmaceuticals, Inc., priority 2012, published 2013)
